Where two headings read alike, the source gives them in different places.
Target: T1, AXL receptor tyrosine kinase (AXL) (Homo sapiens, UniProt P30530)
T1 construct: purchased Eurofins DiscoverX (KINOMEscan service)
T1 sequence (P30530 26-894): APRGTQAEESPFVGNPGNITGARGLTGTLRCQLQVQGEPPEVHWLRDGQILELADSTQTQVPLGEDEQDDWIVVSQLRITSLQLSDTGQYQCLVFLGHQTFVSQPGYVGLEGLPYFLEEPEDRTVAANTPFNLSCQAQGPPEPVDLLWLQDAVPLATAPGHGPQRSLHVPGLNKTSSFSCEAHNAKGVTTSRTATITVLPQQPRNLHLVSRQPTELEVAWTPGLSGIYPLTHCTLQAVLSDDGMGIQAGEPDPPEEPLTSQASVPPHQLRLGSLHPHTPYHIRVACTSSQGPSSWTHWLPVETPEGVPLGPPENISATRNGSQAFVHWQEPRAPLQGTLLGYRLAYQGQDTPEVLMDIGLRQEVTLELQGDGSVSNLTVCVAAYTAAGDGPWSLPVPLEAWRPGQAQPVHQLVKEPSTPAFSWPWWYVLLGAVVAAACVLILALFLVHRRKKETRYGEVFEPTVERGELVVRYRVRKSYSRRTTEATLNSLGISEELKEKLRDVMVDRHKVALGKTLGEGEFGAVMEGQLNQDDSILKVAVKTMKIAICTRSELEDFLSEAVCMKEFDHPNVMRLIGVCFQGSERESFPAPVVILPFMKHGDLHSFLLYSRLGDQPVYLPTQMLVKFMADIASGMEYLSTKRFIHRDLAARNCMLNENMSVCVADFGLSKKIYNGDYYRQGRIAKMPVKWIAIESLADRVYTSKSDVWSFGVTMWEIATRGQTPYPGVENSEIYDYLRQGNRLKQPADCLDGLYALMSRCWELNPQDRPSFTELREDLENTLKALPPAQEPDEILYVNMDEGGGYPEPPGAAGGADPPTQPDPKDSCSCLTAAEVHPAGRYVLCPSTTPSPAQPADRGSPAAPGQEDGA
Assay: KINOMEscan competition binding assay (Eurofins DiscoverX), AXL
Protocol: The affinity of several compounds hereof having a substituent on the imidazo[1,2-b]pyridazine moiety at position-6, wherein the substituent comprised one or more ring moieties was evaluated with respect to two TAM kinases: AXL and MERTK. […] The assay uses DNA-tagged kinase, an immobilized ligand, and the test compound. Quantitative polymerase chain reaction (PCR) of the DNT tag was then used to measure the ability of the tested compound to displace the immobilized ligand.

Kd (FIG. 6A, replicate 1, read-out: Kd AXL, replicate 1): 0.77 nM
Kd (FIG. 6B, replicate 2, read-out: Kd AXL, replicate 2): 1.3 nM
Kd (Table 1, DiscoverX Eurofins, read-out: Kd AXL): 1.1 nM
Structure (SMILES): C[C@@H]1CN(c2ccc3ncc(C#Cc4cncc(C(=O)Nc5ccc(CN6CCN(C)CC6)c(C(F)(F)F)c5)c4)n3n2)C[C@H](C)O1 [HSND80, 5-((6-((2S,6R)-2,6-Dimethylmorpholino)imidazo[1,2-b]pyridazin-3-yl)ethynyl)-N-(4-((4-methylpiperazin-1-yl)methyl)-3-(trifluoromethyl)phenyl)nicotinamide]
